Experimental data: ChEMBL document CHEMBL1152560, “Substituted 2-arylbenzothiazoles as kinase inhibitors: hit-to-lead optimization” (Bioorg Med Chem, 2009)

Columns and labels:
[1] = molecular target: Cyclin-dependent kinase 5/CDK5 activator 1 (Homo sapiens) (UniProt Q00535+Q15078); assay: Residual activity of CDK5/p25NCK at 1 uM by microplate scintillation counting; format: protein-complex assay
[2] = molecular target: Macrophage colony-stimulating factor 1 receptor (Homo sapiens) (UniProt P07333); assay: Residual activity of CSF1R at 1 uM by microplate scintillation counting
[3] = molecular target: T1, Ephrin type-B receptor 4 (Homo sapiens) (UniProt P54760); assay: Residual activity of EPHB4 at 1 uM by microplate scintillation counting
T1 sequence (whole entry): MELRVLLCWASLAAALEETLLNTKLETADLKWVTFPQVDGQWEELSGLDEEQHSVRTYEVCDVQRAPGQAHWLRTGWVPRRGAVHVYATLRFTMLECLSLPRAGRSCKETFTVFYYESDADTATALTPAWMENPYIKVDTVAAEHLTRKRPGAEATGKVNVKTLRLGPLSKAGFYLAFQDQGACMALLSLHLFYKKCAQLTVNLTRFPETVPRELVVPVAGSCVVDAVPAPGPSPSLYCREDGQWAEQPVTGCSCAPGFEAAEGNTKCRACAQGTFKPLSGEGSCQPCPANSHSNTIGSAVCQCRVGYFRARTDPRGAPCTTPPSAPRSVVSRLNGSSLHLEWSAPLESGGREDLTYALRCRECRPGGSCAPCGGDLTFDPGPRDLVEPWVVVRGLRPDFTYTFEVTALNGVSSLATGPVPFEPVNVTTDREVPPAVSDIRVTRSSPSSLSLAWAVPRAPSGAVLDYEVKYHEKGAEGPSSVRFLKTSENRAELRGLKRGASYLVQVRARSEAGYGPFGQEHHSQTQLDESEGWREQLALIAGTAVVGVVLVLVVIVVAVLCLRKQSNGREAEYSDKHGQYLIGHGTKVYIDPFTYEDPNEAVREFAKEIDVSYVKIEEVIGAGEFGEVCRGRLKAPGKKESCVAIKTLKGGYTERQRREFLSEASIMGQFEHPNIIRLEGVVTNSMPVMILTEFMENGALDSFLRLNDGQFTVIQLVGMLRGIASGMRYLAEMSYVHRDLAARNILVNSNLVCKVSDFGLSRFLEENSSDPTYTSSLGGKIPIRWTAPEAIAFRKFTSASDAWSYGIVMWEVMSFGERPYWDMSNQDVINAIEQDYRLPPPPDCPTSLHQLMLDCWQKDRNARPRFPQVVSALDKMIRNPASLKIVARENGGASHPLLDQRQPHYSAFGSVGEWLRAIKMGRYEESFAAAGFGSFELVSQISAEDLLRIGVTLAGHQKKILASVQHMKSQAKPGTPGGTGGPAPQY

[4] = molecular target: G protein-coupled receptor kinase 4 (Homo sapiens) (UniProt P32298); assay: Residual activity of GRK4 at 1 uM by microplate scintillation counting
[5] = molecular target: T2, Serine/threonine-protein kinase TBK1 (Homo sapiens) (UniProt Q9UHD2); assay: Residual activity of TBK1 at 1 uM by microplate scintillation counting
T2 sequence (whole entry): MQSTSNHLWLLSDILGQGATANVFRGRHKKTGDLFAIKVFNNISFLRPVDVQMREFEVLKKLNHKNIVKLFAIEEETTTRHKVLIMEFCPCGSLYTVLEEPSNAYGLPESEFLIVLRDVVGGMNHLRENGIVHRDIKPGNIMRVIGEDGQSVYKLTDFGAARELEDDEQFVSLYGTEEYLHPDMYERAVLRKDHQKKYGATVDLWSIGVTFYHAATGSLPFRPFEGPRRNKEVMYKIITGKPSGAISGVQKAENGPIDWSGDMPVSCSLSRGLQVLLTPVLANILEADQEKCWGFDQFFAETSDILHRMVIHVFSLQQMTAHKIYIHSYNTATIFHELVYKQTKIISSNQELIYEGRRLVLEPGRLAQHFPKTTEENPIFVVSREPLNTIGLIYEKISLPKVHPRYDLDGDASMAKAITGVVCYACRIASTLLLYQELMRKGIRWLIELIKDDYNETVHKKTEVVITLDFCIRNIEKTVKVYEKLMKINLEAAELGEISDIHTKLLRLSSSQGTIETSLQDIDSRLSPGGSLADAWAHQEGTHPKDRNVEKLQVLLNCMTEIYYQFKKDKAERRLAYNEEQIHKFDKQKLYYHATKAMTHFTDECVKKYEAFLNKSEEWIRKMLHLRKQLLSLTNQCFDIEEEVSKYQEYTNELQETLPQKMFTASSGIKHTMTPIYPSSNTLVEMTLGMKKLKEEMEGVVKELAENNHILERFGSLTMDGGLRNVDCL

[6] = molecular target: Vascular endothelial growth factor receptor 3 (Homo sapiens, UniProt P35916); assay: Residual activity of VEGFR3 at 1 uM by microplate scintillation counting
[7] = molecular target: Tyrosine-protein kinase Fyn (Homo sapiens) (UniProt P06241); assay: Residual activity of FYN at 10 uM by microplate scintillation counting
[8] = molecular target: T3, Cytoplasmic tyrosine-protein kinase BMX (Homo sapiens) (UniProt P51813); assay: Residual activity of BMX at 1 uM by microplate scintillation counting
T3 sequence (whole entry): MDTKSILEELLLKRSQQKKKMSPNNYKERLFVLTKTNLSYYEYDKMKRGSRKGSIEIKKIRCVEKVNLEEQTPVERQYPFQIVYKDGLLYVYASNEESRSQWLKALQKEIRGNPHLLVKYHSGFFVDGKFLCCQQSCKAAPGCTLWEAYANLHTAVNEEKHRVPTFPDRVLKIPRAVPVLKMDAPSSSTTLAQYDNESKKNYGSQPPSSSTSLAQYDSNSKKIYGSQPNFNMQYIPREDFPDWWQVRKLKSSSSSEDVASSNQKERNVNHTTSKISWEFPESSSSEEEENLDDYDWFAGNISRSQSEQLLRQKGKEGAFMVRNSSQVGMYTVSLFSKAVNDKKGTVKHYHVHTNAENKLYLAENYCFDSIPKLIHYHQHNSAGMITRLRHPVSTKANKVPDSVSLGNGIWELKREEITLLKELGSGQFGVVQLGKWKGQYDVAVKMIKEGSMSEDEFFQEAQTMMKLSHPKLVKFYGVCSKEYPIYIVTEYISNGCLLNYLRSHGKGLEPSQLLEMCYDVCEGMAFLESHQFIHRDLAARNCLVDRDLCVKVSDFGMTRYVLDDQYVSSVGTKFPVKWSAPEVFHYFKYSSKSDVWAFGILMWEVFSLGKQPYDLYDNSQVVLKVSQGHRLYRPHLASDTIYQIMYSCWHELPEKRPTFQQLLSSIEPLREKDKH

Sequence of Cyclin-dependent kinase 5/CDK5 activator 1 (Homo sapiens) (Q00535 whole entry): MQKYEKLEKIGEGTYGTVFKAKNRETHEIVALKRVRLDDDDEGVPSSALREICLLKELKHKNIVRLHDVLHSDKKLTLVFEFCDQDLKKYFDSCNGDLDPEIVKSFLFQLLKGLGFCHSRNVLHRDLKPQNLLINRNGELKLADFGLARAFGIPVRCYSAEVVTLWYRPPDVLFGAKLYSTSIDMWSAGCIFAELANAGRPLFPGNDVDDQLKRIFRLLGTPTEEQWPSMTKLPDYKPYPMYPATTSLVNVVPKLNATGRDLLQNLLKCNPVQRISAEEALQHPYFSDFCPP
Sequence of Cyclin-dependent kinase 5/CDK5 activator 1 (Homo sapiens) (Q15078 99-307 partner limits assumed): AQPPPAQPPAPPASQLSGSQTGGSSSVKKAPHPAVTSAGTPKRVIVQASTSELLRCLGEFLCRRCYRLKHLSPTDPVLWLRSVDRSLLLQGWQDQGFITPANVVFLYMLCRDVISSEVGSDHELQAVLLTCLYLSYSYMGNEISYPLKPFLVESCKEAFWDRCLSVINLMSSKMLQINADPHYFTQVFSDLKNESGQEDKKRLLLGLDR
Sequence of G protein-coupled receptor kinase 4 (Homo sapiens) (P32298 whole entry, looked up): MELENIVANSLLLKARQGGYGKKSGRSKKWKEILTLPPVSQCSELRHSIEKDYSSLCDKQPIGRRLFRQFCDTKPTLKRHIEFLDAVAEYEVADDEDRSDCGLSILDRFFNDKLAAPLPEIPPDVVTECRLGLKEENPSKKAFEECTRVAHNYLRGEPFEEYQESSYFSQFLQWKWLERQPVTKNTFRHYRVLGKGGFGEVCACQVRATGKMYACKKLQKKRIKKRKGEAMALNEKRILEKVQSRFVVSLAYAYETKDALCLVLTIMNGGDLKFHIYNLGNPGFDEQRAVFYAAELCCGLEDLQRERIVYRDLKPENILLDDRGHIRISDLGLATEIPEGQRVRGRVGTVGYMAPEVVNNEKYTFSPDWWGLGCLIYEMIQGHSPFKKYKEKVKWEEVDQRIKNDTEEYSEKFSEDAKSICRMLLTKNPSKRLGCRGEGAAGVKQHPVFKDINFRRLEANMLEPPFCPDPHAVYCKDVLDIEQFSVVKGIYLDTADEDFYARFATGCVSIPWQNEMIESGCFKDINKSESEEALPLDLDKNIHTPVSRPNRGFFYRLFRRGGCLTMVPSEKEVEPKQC
Sequence of Tyrosine-protein kinase Fyn (Homo sapiens) (P06241 2-537 limits assumed): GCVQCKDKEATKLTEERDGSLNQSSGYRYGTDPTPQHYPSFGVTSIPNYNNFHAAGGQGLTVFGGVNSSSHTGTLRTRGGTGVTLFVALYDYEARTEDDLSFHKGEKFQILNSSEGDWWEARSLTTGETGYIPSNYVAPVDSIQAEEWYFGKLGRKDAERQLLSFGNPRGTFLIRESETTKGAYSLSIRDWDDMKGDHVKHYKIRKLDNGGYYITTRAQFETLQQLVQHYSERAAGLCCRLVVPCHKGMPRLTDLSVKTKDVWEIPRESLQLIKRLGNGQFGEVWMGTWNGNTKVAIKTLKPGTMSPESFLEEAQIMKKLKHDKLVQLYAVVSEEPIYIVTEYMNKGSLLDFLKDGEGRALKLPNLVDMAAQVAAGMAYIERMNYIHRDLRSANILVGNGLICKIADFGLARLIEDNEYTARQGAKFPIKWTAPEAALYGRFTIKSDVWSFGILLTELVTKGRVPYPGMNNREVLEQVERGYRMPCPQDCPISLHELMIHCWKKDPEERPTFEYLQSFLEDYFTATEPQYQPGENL
Sequence of Vascular endothelial growth factor receptor 3 (P35916 whole entry): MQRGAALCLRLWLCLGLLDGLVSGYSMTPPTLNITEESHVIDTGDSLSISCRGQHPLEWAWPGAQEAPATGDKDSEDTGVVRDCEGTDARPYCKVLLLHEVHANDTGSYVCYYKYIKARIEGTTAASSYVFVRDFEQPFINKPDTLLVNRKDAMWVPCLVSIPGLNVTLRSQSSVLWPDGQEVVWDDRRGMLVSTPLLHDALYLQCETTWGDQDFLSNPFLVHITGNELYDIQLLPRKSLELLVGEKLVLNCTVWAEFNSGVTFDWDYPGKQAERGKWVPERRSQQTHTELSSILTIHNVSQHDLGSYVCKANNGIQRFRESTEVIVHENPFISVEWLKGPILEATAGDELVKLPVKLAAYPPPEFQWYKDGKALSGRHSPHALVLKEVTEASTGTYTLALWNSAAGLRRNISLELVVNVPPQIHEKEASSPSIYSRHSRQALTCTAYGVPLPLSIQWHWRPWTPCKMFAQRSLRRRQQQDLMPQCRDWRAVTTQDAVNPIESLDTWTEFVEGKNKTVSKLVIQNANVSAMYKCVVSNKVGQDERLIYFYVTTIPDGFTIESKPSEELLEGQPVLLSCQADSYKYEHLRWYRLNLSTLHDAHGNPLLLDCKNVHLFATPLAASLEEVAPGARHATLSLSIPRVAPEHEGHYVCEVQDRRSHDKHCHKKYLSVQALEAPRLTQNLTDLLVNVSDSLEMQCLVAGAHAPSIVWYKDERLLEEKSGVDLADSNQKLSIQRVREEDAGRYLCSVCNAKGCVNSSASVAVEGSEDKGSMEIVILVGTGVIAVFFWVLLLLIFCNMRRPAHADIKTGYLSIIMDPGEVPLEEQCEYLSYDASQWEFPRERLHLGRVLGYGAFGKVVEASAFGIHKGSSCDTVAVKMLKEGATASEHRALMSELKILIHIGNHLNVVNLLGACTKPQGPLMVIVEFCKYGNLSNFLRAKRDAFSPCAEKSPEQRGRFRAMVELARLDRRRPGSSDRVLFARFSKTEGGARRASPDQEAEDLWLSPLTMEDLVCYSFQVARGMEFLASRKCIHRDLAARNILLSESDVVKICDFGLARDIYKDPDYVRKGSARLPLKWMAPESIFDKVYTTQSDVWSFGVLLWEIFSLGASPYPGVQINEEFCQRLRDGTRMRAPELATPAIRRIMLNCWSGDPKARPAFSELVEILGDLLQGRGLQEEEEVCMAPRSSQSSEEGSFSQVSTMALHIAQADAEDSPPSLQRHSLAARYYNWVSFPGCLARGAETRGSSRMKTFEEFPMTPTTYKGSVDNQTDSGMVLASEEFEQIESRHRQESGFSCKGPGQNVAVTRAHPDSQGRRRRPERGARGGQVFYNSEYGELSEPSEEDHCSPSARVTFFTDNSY
Sequence of Macrophage colony-stimulating factor 1 receptor (Homo sapiens) (P07333 whole entry): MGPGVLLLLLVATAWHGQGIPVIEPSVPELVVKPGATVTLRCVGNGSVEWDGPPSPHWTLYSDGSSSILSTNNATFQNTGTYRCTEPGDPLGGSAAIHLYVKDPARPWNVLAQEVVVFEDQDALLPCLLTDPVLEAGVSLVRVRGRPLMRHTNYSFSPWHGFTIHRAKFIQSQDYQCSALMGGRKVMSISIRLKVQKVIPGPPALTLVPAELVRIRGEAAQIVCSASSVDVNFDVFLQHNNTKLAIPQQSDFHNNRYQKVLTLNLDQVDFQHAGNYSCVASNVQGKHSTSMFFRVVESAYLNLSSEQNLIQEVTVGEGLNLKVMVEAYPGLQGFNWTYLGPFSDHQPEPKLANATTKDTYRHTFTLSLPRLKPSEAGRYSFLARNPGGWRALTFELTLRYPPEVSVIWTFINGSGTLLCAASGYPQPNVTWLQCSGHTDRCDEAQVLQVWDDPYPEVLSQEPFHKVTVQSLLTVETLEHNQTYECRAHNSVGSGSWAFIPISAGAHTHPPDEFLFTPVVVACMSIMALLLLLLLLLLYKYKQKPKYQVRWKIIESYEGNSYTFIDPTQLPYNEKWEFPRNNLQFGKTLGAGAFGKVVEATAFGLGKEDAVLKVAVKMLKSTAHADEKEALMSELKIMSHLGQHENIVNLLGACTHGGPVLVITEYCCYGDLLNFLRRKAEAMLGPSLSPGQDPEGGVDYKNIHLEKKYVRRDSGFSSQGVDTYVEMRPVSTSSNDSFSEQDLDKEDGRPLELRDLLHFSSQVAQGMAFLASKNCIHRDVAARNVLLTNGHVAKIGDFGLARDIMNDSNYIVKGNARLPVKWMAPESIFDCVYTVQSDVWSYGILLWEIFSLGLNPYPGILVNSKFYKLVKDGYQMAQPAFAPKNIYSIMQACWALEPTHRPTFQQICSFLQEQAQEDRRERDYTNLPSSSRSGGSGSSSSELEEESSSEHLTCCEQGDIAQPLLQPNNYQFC

residual activity [1]	residual activity [2]	residual activity [3]	residual activity [4]	residual activity [5]	residual activity [6]	residual activity [7]	residual activity [8]	SMILES
82%	118%	127%	94%	85%	34%	56%	122%	COc1cc2c(Oc3ccc(-c4nc5ccccc5s4)cc3)ncnc2cc1OCCCN1CCN(C)CC1
89%	105%	114%	106%	99%	30%	10%	128%	COc1cc2c(Oc3ccc(-c4nc5ccccc5s4)cc3F)ncnc2cc1OCCCN1CCN(C)CC1
87%	112%	127%	97%	92%	32%	70%	127%	COc1cc2c(Oc3ccc(-c4nc5ccccc5s4)cc3)ncnc2cc1OCCCN1CCCC1
